Read-outs that look alike come from different tables or passages of the source.
Experiments:
[1] = Protocol: After one week of exposure, the samples were analyzed by XRPD to check for form conversion and HPLC analysis to check for potential degradation. […] Ambient • Detection: 248 nm • Diluent: MeOH • Injection Volume: 5 μl
[2] = ambient conditions
[3] = for XRPD pattern of the solids following moisture sorption analysis: after moisture sorption analysis; for hygroscopicity (in words) / observation upon desorption: moisture sorption analysis; for observation upon desorption: desorption scan; for water adsorbed at 60% RH / water adsorbed at 90% RH: 25° C.
Protocol: Approximately 10 mg of the sample was analyzed in a Pyrex bulb. Each scan utilized a step size of 10% RH and a maximum equilibration time of four hours per point. The sample was dried for one hour at 80° C. following the desorption scan to obtain the dry sample weight and then it was analyzed by XRPD.

[4] = Competitive slurries of brimonidine hemi-pamoate forms; assay type: physicochemical; conditions: for XRPD (1 week): form: competitive slurry of Forms A, RT; for relative stability (conclusion from competitive slurries): competitive slurries in THF or water, one week
[5] = ambient
Description: Following one week intervals, samples were isolated by centrifugation and dried in vacuo at ambient temperature overnight and analyzed by XRPD to check for polymorphic form conversion.

[6] = 88% RH; for Visual inspection (2 week): 2 weeks, inspected for deliquescence
Protocol: This solution results in 88% RH environment. After two weeks of storage the crystalline form was determined by XRPD and solid inspected for deliquescence.

[7] = cited from earlier work
[8] = stored uncapped at 60° C., 1 week
[9] = 60° C., sample exposed for 6 days (footnote)

| Molecule | solid state stability after one week of storage at 60° C. (in words, HPLC and XRPD) ([1]; 60° C., one week) | HPLC (% purity) after thermal stress [1, 8] | XRPD (1 week): crystallinity [1, 8] | XRPD (1 week): form [1, 8] | form by XRPD after overnight slurry in water [2] | XRPD pattern of the solids following moisture sorption analysis [3] | hygroscopicity (in words) [3] | observation upon desorption [3] | water adsorbed at 60% RH ([3]; moisture sorption) | water adsorbed at 90% RH ([3]; moisture sorption) | XRPD (1 week): form ([4]; B, C and D in THF (1.0 mL)) | XRPD (1 week): form ([4]; C, D and E in water (1.0 mL)) | Visual inspection (2 week) [6] | other results |
| --- | --- | --- | --- | --- | --- | --- | --- | --- | --- | --- | --- | --- | --- | --- |
| Brc1c(NC2=NCCN2)ccc2nccnc12.Brc1c(NC2=NCCN2)ccc2nccnc12.O=C(O)c1cc2ccccc2c(Cc2c(O)c(C(=O)O)cc3ccccc23)c1O [Form A, brimonidine hemi-pamoate] | stable by XRPD and HPLC | 100.0% | Crystalline | (Form A) | Form B | consistent with the Form A starting material | slightly hygroscopic | no hysteresis or indication of hydrate formation | 2.2 wt % | 2.5 wt % | Form E | Form F | No deli- | Form by XRPD (1 week) ([5]; slurry in THF 1 mL, 1 week): Form E; Form by XRPD (3 weeks) ([5]; slurry in water (magnetic stirring) 1 mL, 3 weeks): Form B; stability after two weeks of storage at elevated relative humidity (in words) [6]: no sign of deliquescence or change in crystalline form |
| Brc1c(NC2=NCCN2)ccc2nccnc12.Brc1c(NC2=NCCN2)ccc2nccnc12.O=C(O)c1cc2ccccc2c(Cc2c(O)c(C(=O)O)cc3ccccc23)c1O [Form B, brimonidine hemi-pamoate] | – | 100.0% | Crystalline | (Form B) | – | consistent with Form B | – | – | 5.4 wt % | 5.8 wt % | Form E | – | – | solid state stability after one week of storage at 60° C. (in words, HPLC and XRPD) [1]: no degradation or signs of form conversion; water content stabilized between 20-90% RH [3]: 5-6 wt % |
| Brc1c(NC2=NCCN2)ccc2nccnc12.Brc1c(NC2=NCCN2)ccc2nccnc12.O=C(O)c1cc2ccccc2c(Cc2c(O)c(C(=O)O)cc3ccccc23)c1O [Form C, brimonidine hemi-pamoate] | no significant degradation or signs of form conversion | 97.9% | Semi-cryst. | (Form C) | mixture of Forms B and F | consistent with Form C | moderately hygroscopic | no hysteresis or indication of hydrate formation | 4.6 wt % | 13.0 wt % | Form E | Form F | No deli- | – |
| Brc1c(NC2=NCCN2)ccc2nccnc12.Brc1c(NC2=NCCN2)ccc2nccnc12.O=C(O)c1cc2ccccc2c(Cc2c(O)c(C(=O)O)cc3ccccc23)c1O [Form D, brimonidine hemi-pamoate] | no significant degradation or signs of form conversion | 96.7% | Crystalline | (Form D) | mixture of Forms B and F | consistent with Form D | slightly hygroscopic | no hysteresis or indication of hydrate formation | 1.8 wt % | 2.6 wt % | Form E | Form F | – | – |
| Brc1c(NC2=NCCN2)ccc2nccnc12.Brc1c(NC2=NCCN2)ccc2nccnc12.O=C(O)c1cc2ccccc2c(Cc2c(O)c(C(=O)O)cc3ccccc23)c1O [Form E, brimonidine hemi-pamoate] | no significant degradation or signs of form conversion | – | – | – | mixture of Forms B and F | consistent with Form E | slightly hygroscopic | no hysteresis or indication of hydrate formation | 3.1 wt % | 4.2 wt % | – | Form F | – | HPLC (% purity) after thermal stress [1, 9]: 100.0%; XRPD (1 week): crystallinity [1, 9]: Semi-cryst.; XRPD (1 week): form [1, 9]: (Form E); relative stability (conclusion from competitive slurries) [4]: most stable anhydrate form |
| Brc1c(NC2=NCCN2)ccc2nccnc12.Brc1c(NC2=NCCN2)ccc2nccnc12.O=C(O)c1cc2ccccc2c(Cc2c(O)c(C(=O)O)cc3ccccc23)c1O [Form F, brimonidine hemi-pamoate] | – | – | – | – | mixture of Forms B and F | consistent with Form F | – | – | – | – | – | – | No deli- | water adsorbed at 40% RH ([3]; moisture sorption, 40% RH): approximately 1.8 molar equivalent; relative stability (conclusion from competitive slurries) [4]: more stable in water than Forms A, C, D and E; stability after two weeks of storage at elevated relative humidity (in words) [6]: no sign of deliquescence or change in crystalline form |
| Brc1c(NC2=NCCN2)ccc2nccnc12 [brimonidine freebase, 5-bromo-6-(2-imidazolidinylideneamino)quinoxaline] | – | – | – | – | – | – | – | – | – | – | – | – | – | solubility in water (in words) ([7]; water): negligible |
| brimonidine tartrate | – | – | – | – | – | – | – | – | – | – | – | – | – | solubility in a pH 7.0 phosphate buffer ([7]; pH 7.0 phosphate buffer): 2.4 mg/mL; solubility in water ([7]; water): 34 mg/mL |

Reference: US8420648B2, “Polymorphs of brimonidine pamoate” (Bausch & Lomb Incorporated, priority 2008, dated 2013)
